Results: US10207993B2 (priority 2014, dated 2019)
pEC50: −log10 of the molar value. Values joined by “and” are separate entries in the source; they are usually repeats but may differ in a detail not shown here. Identical values can stand only once. Like-named read-outs stand apart in the source and are kept apart here.

Tests used:
GPR109A = GPR109A (Homo sapiens, UniProt Q8TDS4); format: cell-based
H37Rv [1] = assay: microbe, parasite or virus in culture; format: cell-based, M. tuberculosis; settings: for inhibition at 0.5 µM: Mycobacterium tuberculosis, H37RV, THP-1, 90 h, read-out: H37Rv % Inhibition at 500 nM
in vivo [2] = settings: Balb/C, mouse
JAL2287 [3] = format: cell-based, M. tuberculosis
H37Rv [4] = assay: microbe, parasite or virus in culture; format: cell-based, M. tuberculosis; settings: Mycobacterium tuberculosis, THP-1, 90 h
JAL2287 [5] = assay: microbe, parasite or virus in culture; format: cell-based, M. tuberculosis; settings: Mycobacterium tuberculosis, THP-1, 90 h
MYC431 [6] = assay: microbe, parasite or virus in culture; format: cell-based, M. tuberculosis; settings: Mycobacterium tuberculosis, THP-1, 90 h
MDR-M. tb (JAL2287) = system: MDR-M. tb (JAL2287); set-up: species or system M. tuberculosis; settings: in vivo
[7] = Balb/C, mouse, in vivo, po, 10 mg/kg
MYC431 [8] = format: cell-based, M. tuberculosis
in vivo [9] = settings: Beagle, dog
[10] = system: drug susceptible M. tb (H37Rv); set-up: species or system M. tuberculosis; settings: in vivo
H37Rv [11] = format: cell-based, M. tuberculosis

GPR109A, sequence (Q8TDS4 whole entry): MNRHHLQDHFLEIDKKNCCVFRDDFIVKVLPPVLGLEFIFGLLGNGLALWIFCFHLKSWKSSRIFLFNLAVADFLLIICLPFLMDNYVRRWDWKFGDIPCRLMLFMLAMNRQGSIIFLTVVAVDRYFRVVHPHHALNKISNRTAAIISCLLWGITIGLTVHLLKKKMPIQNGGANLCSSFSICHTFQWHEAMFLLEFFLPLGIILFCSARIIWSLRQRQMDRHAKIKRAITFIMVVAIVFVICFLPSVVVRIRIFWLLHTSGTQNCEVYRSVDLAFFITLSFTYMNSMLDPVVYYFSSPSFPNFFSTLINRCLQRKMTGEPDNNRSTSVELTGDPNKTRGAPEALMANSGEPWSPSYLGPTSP

## CC(O)CC(=O)O (stereo not shown) [Compound 3HBA, 3-hydroxybutyric acid]
GPR109A
  effect on intracellular cAMP levels: reduces intracellular cAMP levels

## CN1CCC[C@H](OC(=O)[C@H](O)c2ccccc2)C1 [Compound 1038]
H37Rv [1]
  inhibition at 0.5 µM: 56%

## CN1CCC[C@@H](OC(=O)[C@@H](O)c2ccccc2)C1 [Compound 1039]
H37Rv [1]
  inhibition at 0.5 µM: 61%

## CN1CCC[C@H](OC(=O)[C@@H](O)c2ccccc2)C1 [Compound 1040, (S)-(S)-1-Methylpiperidin-3-yl 2-hydroxy-2-phenylacetate]
H37Rv [1]
  inhibition at 0.5 µM: 79%

## CN1CCC(OC(=O)[C@H](O)c2ccccc2)CC1 [Compound 1041, (R)-1-Methylpiperidin-4-yl 2-hydroxy-2-phenylacetate]
H37Rv [1]
  inhibition at 0.5 µM: 71%

## CN1CCC(NC(=O)[C@@H](O)c2ccccc2)CC1 [Compound 1042, (S)-2-Hydroxy-N-(1-methylpiperidin-4-yl)-2-phenylacetamide]
H37Rv [1]
  inhibition at 0.5 µM: 73%

## CN1CCC(NC(=O)[C@H](O)c2ccccc2)CC1 [Compound 1043, (R)-2-Hydroxy-N-(1-methylpiperidin-4-yl)-2-phenylacetamide]
H37Rv [1]
  inhibition at 0.5 µM: 72%

## CN1CCC[C@@H](NC(=O)[C@H](O)c2ccccc2)C1 [Compound 1044, (R)-2-Hydroxy-N-((R)-1-methylpiperidin-3-yl)-2-phenylacetamide]
H37Rv [1]
  inhibition at 0.5 µM: 65%

## O=C(OC1CN(Cc2ccccc2)C1)[C@@H](O)c1ccccc1 [Compound 1048, (S)-1-Benzylazetidin-3-yl 2-hydroxy-2-phenylacetate]
H37Rv [1]
  inhibition at 0.5 µM: 79%

## O=C(NC1CCN(Cc2ccccc2)CC1)[C@H](O)c1ccccc1 [Compound 1051, (R)-N-(1-Benzylpiperidin-4-yl)-2-hydroxy-2-phenylacetamide]
H37Rv [1]
  inhibition at 0.5 µM: 59%

## O=C(NC1CCN(Cc2ccccc2)CC1)[C@@H](O)c1ccccc1 [Compound 1052, (S)-N-(1-Benzylpiperidin-4-yl)-2-hydroxy-2-phenylacetamide]
H37Rv [1]
  inhibition at 0.5 µM: 73%

## C[N+]1(C)CCC[C@@H](OC(=O)[C@H](O)c2ccccc2)C1 [Compound 1053, (R)-3-((R)-2-Hydroxy-2-phenylacetoxy)-1,1-dimethylpiperidin-1-ium]
H37Rv [1]
  inhibition at 0.5 µM: 78%

## C[N+]1(C)CCC[C@H](OC(=O)[C@H](O)c2ccccc2)C1 [Compound 1054, (S)-3-((R)-2-Hydroxy-2-phenylacetoxy)-1,1-dimethylpiperidin-1-ium]
H37Rv [1]
  inhibition at 0.5 µM: 74%

## O=C(Nc1cccnc1)[C@H](O)c1ccccc1 [Compound 1055, (R)-2-Hydroxy-2-phenyl-N-(pyridin-3-yl)acetamide]
H37Rv [1]; 0.5 µM
  H37Rv % Inhibition at 500 nM: 52%

## CC(=O)O[C@@H](C(=O)O[C@H]1CCCN(C)C1)c1ccccc1 [Compound 1056]
H37Rv [1]
  inhibition at 0.5 µM: 78%

## CN1CC[C@@H](OC(=O)[C@H](O)c2ccccc2)C1 [Compound 1057, (R)-(R)-1-Methylpyrrolidin-3-yl 2-hydroxy-2-phenylacetate]
H37Rv [1]
  inhibition at 0.5 µM: 76%

## CN1CC[C@H](OC(=O)[C@H](O)c2ccccc2)C1 [Compound 1058]
H37Rv [1]
  inhibition at 0.5 µM: 55%

## COC(C(=O)O)c1ccccc1 (stereo not shown) [Compound 1060, 2-Methoxy-2-phenylacetic acid]
H37Rv [1]
  inhibition at 0.5 µM: 78%

## CO[C@@H](C(=O)N1CCOC[C@@H]1C)c1ccccc1 [Compound 1074, (R)-2-Methoxy-1-((S)-3-methylmorpholino)-2-phenylethanone]
H37Rv [1]
  inhibition at 0.5 µM: 24%

## CO[C@@H](C(=O)N1CCOC[C@H]1C)c1ccccc1 [Compound 1075, (R)-2-Methoxy-1-((R)-3-methylmorpholino)-2-phenylethanone]
H37Rv [1]
  inhibition at 0.5 µM: 46%

## CO[C@@H](C(=O)N1CCO[C@H](C)[C@@H]1C)c1ccccc1 [Compound 1076, (R)-1-((2R,3S)-2,3-Dimethylmorpholino)-2-methoxy-2-phenylethanone]
H37Rv [1]
  inhibition at 0.5 µM: 50%

## CO[C@H](C(=O)N1CCOC[C@@H]1C)c1ccccc1 [Compound 1077, (S)-2-Methoxy-1-((S)-3-methylmorpholino)-2-phenylethanone]
H37Rv [1]
  inhibition at 0.5 µM: 52%

## CO[C@@H](C(=O)NC1CCNCC1)c1ccccc1 [Compound 1085, (R)-2-Methoxy-2-phenyl-N-(piperidin-4-yl)acetamide]
H37Rv [1]
  inhibition at 0.5 µM: 93%
In vivo [2]
  bioavailability: 47%
In vivo [2]; iv, 1 mg/kg
  AUC: 1.73 µM·h
  Cmax: 3.06 µM
  Tmax: 0 min
  Vd: 0.22 L/kg
  clearance: 1.33 mL/min/kg
  half-life: 114 min
In vivo [2]; po, 10 mg/kg
  AUC: 8.17 µM·h
  Cmax: 11.2 µM
  Tmax: 12 min
  half-life: 168 min
JAL2287 [3]
  CFU/well (1 × 10^3) After treatment with 1085: 6.33 ± 3.51 CFU/well (1 × 10^3)
H37Rv [4]
  pEC50: 9.30
JAL2287 [5]
  pEC50: 10.00
MYC431 [6]
  pEC50: 10.00
MDR-M. tb (JAL2287)
  % Reduction of CFU in lung: 43.5% and 62.4% and 80.0%
  % Reduction of CFU in spleen: 96.6% and 98.3%
  CFU/spleen (×10^3): 0.4 ×10^3 and 0.2 ×10^3
[7]
  Cl: 0.12 L/kg/h
  Vd: 0.13 L/kg
MYC431 [8]
  CFU/well (1 × 10^3) After treatment with 1085: 6.00 ± 1.00 CFU/well (1 × 10^3)
In vivo [9]
  bioavailability: 57%
In vivo [9]; iv, 0.3 mg/kg
  AUC(0-t): 3.44 µM·h
  Cmax: 2.76 µM
  Tmax: 0 h
  half-life: 180 min
In vivo [9]; po, 3 mg/kg
  AUC(0-t): 19.6 µM·h
  Cmax: 3.77 µM
  Tmax: 1 h
  half-life: 150 min
[10]
  CFU/Lung (×10^5): 4.76 ×10^5
H37Rv [11]
  CFU/well (1 × 10^3) After treatment with 1085: 8.66 ± 2.51 CFU/well (1 × 10^3)
